In patent publication US8829007B2 (priority 2009, dated 2014):
Where two headings read alike, the source gives them in different places.

Columns and labels:
[1] = test system: influenza A virus (A/PR/8/34); experiment: microbe, parasite or virus in culture; format: cell-based; conditions: read-out: IC50 (mean all)
[2] = test system: A/PR/8/34 influenza virus; experiment: microbe, parasite or virus in culture; format: cell-based; conditions: read-out: EC50 (mean all)
[3] = Influenza A virus, PR/8, MDCK, MDCK cells infected with A/PR/8/34, survival of infected cells, class symbols
[4] = Influenza A virus, PR/8, MDCK, MDCK cells infected with A/PR/8/34, replication of influenza virus (viral RNA, bDNA), class symbols
[5] = MDCK cells infected with A/PR/8/34, survival of infected cells, class symbols
[6] = MDCK cells infected with A/PR/8/34, replication of influenza virus (viral RNA, bDNA), class symbols
[7] = Influenza A virus, PR/8, MDCK, CPE assay, A/PR/8/34 infected MDCK cells, class symbols
[8] = Influenza A virus, PR/8, MDCK, bDNA assay, A/PR/8/34 influenza virus replication in MDCK cells, class symbols
[9] = CPE assay, A/PR/8/34 infected MDCK cells, class symbols
[10] = bDNA assay, A/PR/8/34 influenza virus replication in MDCK cells, class symbols

| SMILES | IC50 [1, 3] | EC50 [2, 4] | IC50 [1, 7] | EC50 [2, 8] | also measured |
| --- | --- | --- | --- | --- | --- |
| NC1CCCC(Nc2nc(-c3c[nH]c4ncc(Cl)cc34)ncc2F)C1 (stereo not drawn) [Compound 540, N-[2-(5-chloro-1H-pyrrolo[5,4-b]pyridin-3-yl)-5-fluoro-pyrimidin-4-yl]cyclohexane-cis-1,3-diamine] | < 5 µM | < 5 µM |  |  |  |
| N[C@H]1CCC[C@@H](Nc2nc(-c3c[nH]c4ncc(Cl)cc34)ncc2F)C1 [Compound 542, (1R,3S)—N1-[2-(5-chloro-1H-pyrrolo[2,3-b]pyridin-3-yl)-5-fluoro-pyrimidin-4-yl]cyclohexane-1,3-diamine] | 5 to 20 µM | 5 to 10 µM |  |  |  |
| O=C(O)[C@H]1CCCC[C@@H]1Nc1nc(-c2c[nH]c3ncc(Cl)cc23)ncc1F [Compound 553, (1S,2S)-2-[[2-(5-chloro-1H-pyrrolo[5,4-b]pyridin-3-yl)-5-fluoro-pyrimidin-4-yl]amino]cyclohexane-1-carboxylic acid] | < 5 µM | < 5 µM |  |  |  |
| CCOC(=O)[C@@H]1CCCC[C@H]1Nc1nc(-c2c[nH]c3ncc(Cl)cc23)ncc1F [Compound 560, (1R,2R)-ethyl 2-(2-(5-chloro-1H-pyrrolo[2,3-b]pyridin-3-yl)-5-fluoropyrimidin-4-ylamino)cyclohexanecarboxylate] | > 10 µM | > 10 µM |  |  |  |
| CCOC(=O)[C@H]1CCCC[C@@H]1Nc1nc(-c2c[nH]c3ncc(Cl)cc23)ncc1F [Compound 561, (1S,2S)-ethyl 2-(2-(5-chloro-1H-pyrrolo[2,3-b]pyridin-3-yl)-5-fluoropyrimidin-4-ylamino)cyclohexanecarboxylate] | 5 to 20 µM | < 5 µM |  |  |  |
| CC1(O)CCCCC1Nc1nc(-c2c[nH]c3ncc(Cl)cc23)ncc1F (stereo not drawn) [Compound 562, 2-(2-(5-chloro-1H-pyrrolo[2,3-b]pyridin-3-yl)-5-fluoropyrimidin-4-ylamino)-1-methylcyclohexanol] | > 10 µM | < 5 µM |  |  |  |
| O=C(O)[C@H]1CC[C@@H](Nc2nc(-c3c[nH]c4ncc(Cl)cc34)ncc2F)C1 [Compound 565] | 5 to 20 µM | < 5 µM |  |  |  |
| O=C(O)[C@@H]1CC[C@H](Nc2nc(-c3c[nH]c4ncc(Cl)cc34)ncc2F)C1 [Compound 566] | < 5 µM | < 5 µM |  |  |  |
| NC(=O)CN1CCC[C@H](Nc2nc(-c3c[nH]c4ncc(Cl)cc34)ncc2F)C1 [Compound 567] | < 5 µM | < 5 µM |  |  |  |
| CC(C)OC(=O)[C@@H]1CCCC[C@H]1Nc1nc(-c2c[nH]c3ncc(Cl)cc23)ncc1F [Compound 568, (1R,2R)-isopropyl 2-(2-(5-chloro-1H-pyrrolo[2,3-b]pyridin-3-yl)-5-fluoropyrimidin-4-ylamino)cyclohexanecarboxylate] | > 10 µM | > 10 µM |  |  |  |
| CC(C)OC(=O)[C@H]1CCCC[C@@H]1Nc1nc(-c2c[nH]c3ncc(Cl)cc23)ncc1F [Compound 569, (1S,2S)-isopropyl 2-(2-(5-chloro-1H-pyrrolo[2,3-b]pyridin-3-yl)-5-fluoropyrimidin-4-ylamino)cyclohexanecarboxylate] | > 10 µM | > 10 µM |  |  |  |
| COC(=O)N[C@@H]1CCC[C@H](Nc2nc(-c3c[nH]c4ncc(Cl)cc34)ncc2F)C1 [Compound 570, methyl N-[(1R,3S)-3-[[2-(5-chloro-1H-pyrrolo[2,3-b]pyridin-3-yl)-5-fluoro-pyrimidin-4-yl]amino]cyclohexyl]carbamate] | < 5 µM | < 5 µM |  |  |  |
| CC1(O)CCC[C@H](Nc2nc(-c3c[nH]c4ncc(Cl)cc34)ncc2F)C1 (stereo partly drawn) [Compound 571] |  |  |  |  | IC50 [1, 5]: < 5 µM; EC50 [2, 6]: < 5 µM |
| CC1(O)CCC[C@H](Nc2nc(-c3c[nH]c4ncc(Cl)cc34)ncc2F)C1 (stereo partly drawn) [Compound 572] |  |  |  |  | IC50 [1, 5]: < 5 µM; EC50 [2, 6]: < 5 µM |
| O=C(O)[C@@H]1CCCC[C@@H]1Nc1nc(-c2c[nH]c3ncc(Cl)cc23)ncc1F [Compound 578, (1R,2S)-2-(2-(5-chloro-1H-pyrrolo[2,3-b]pyridin-3-yl)-5-fluoropyrimidin-4-ylamino)cyclohexanecarboxylic acid] | < 5 µM | < 5 µM |  |  |  |
| OC[C@@H](O)CN1CCCC(Nc2nc(-c3c[nH]c4ncc(Cl)cc34)ncc2F)C1 (stereo partly drawn) [Compound 587] | < 5 µM | < 5 µM |  |  |  |
| COCC(=O)N[C@@H]1CCC[C@H](Nc2nc(-c3c[nH]c4ncc(Cl)cc34)ncc2F)C1 [Compound 591, N-[(1R,3S)-3-[[2-(5-chloro-1H-pyrrolo[2,3-b]pyridin-3-yl)-5-fluoro-pyrimidin-4-yl]amino]cyclohexyl]-2-methoxy-acetamide] | < 5 µM | < 5 µM |  |  |  |
| Fc1cnc(-c2c[nH]c3ncc(Cl)cc23)nc1NC1CCCN(Cc2cnc[nH]2)C1 (stereo not drawn) [Compound 594, N-(1-((1H-imidazol-5-yl)methyl)piperidin-3-yl)-2-(5-chloro-1H-pyrrolo[2,3-b]pyridin-3-yl)-5-fluoropyrimidin-4-amine] | < 5 µM | < 5 µM |  |  |  |
| COCCN1CCCC(Nc2nc(-c3c[nH]c4ncc(Cl)cc34)ncc2F)C1 (stereo not drawn) [Compound 595] |  |  | < 5 µM | < 5 µM |  |
| CC(C)(C(N)=O)N1CCC[C@H](Nc2nc(-c3c[nH]c4ncc(Cl)cc34)ncc2F)C1 [Compound 598] |  |  | < 5 µM | < 5 µM |  |
| CNC(=O)C(C)(C)N1CCC[C@H](Nc2nc(-c3c[nH]c4ncc(Cl)cc34)ncc2F)C1 [Compound 599] |  |  | < 5 µM | < 5 µM |  |
| CN(C)C(=O)C(C)(C)N1CCC[C@H](Nc2nc(-c3c[nH]c4ncc(Cl)cc34)ncc2F)C1 [Compound 600] |  |  | < 5 µM | < 5 µM |  |
| COCCNC(=O)C(C)(C)N1CCC[C@H](Nc2nc(-c3c[nH]c4ncc(Cl)cc34)ncc2F)C1 [Compound 601] |  |  | < 5 µM | < 5 µM |  |
| CC(C)(C(=O)NC1CC1)N1CCC[C@H](Nc2nc(-c3c[nH]c4ncc(Cl)cc34)ncc2F)C1 [Compound 602] |  |  | < 5 µM | < 5 µM |  |
| NC(=O)C(O)CN1CCCC(Nc2nc(-c3c[nH]c4ncc(Cl)cc34)ncc2F)C1 [Compound 603, 3-((S)-3-((2-(5-chloro-1H-pyrrolo[2,3-b]pyridin-3-yl)-5-fluoropyrimidin-4-ylamino)piperidin-1-yl)-2-hydroxypropanamide] |  |  | < 5 µM | < 5 µM |  |
| O=C(O)C1CNCCC1Nc1nc(-c2c[nH]c3ncc(Cl)cc23)ncc1F (stereo not drawn) [Compound 605] |  |  |  |  | IC50 [1, 9]: > 10 µM; EC50 [2, 10]: > 3.3 µM |
| CNC(=O)C(C)N1CCCC(Nc2nc(-c3c[nH]c4ncc(Cl)cc34)ncc2F)C1 [Compound 606, 2-((S)-3-((2-(5-chloro-1H-pyrrolo[2,3-b]pyridin-3-yl)-5-fluoropyrimidin-4-ylamino)piperidin-1-yl)-N-methylpropanamide] |  |  | < 5 µM | < 5 µM |  |
| CC(=O)N1CCC(Nc2nc(-c3c[nH]c4ncc(Cl)cc34)ncc2F)C(C(=O)O)C1 (stereo not drawn) [Compound 607] |  |  |  |  | IC50 [1, 9]: > 10 µM; EC50 [2, 10]: > 3.3 µM |
| CCNC(=O)OC1CCCC(Nc2nc(-c3c[nH]c4ncc(Cl)cc34)ncc2F)C1 (stereo not drawn) [Compound 608, 3-((2-(5-chloro-1H-pyrrolo[2,3-b]pyridin-3-yl)-5-fluoropyrimidin-4-ylamino)cyclohexyl ethylcarbamate] |  |  |  |  | IC50 ([1]; Influenza A virus, PR/8, MDCK): < 5 µM; EC50 ([2]; Influenza A virus, PR/8, MDCK): < 5 µM |
| COCC(O)CN[C@@H]1CCC[C@H](Nc2nc(-c3c[nH]c4ncc(Cl)cc34)ncc2F)C1 (stereo partly drawn) [Compound 610, 1-[[(1R,3S)-3-[[2-(5-chloro-1H-pyrrolo[2,3-b]pyridin-3-yl)-5-fluoro-pyrimidin-4-yl]amino]cyclohexyl]amino]-3-methoxy-propan-2-ol] |  |  | < 5 µM | > 3.3 µM |  |
